Experimental data published in patent US20250145585A1, “HETEROCYCLIC INHIBITORS OF IGF-1R FOR TREATMENT OF DISEASE” (HORIZON THERAPEUTICS IRELAND DAC, priority 2023, published 2025).

Experiments:
IGF-1R [1] = molecular target: T1, IGF-1R (Homo sapiens, UniProt P08069); assay: Example B-1: IGF-1R Assay (PC3 cells stimulated with IGF1, AlphaLISA on cell lysates); assay type: cell-based; conditions: compound two hours, IGF1 200 ng/mL for 30 min, read-out: IC50, Biological Activity against IGF-1R (Table B1)
T1 construct: expressed in transfected cells
How it was run: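 IC50 from AlphaLISA read-out of lysed PC3 cells, percent inhibition normalized between vehicle and EC80 controls. Before lysis, cells had 2 h serum-free starvation, 2 h exposure to compound in 3× dilution series, and 30 min IGF1 stimulation at final 200 ng/mL.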

IGF-1R [2] = molecular target: T1, IGF-1R; assay: Example B-2: IGF-1R Assay (PathHunter cell lines, EC80 agonist challenge, chemiluminescent detection); assay type: cell-based; conditions: PathHunter cells, compound 60 minutes at 37° C., EC80 agonist 3 hours; read-out: IC50, Biological Activity against IGF-1R (Table B2)
How it was run: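 Read-out is PathHunter chemiluminescence, developed for 1 h at room temperature after a 3 h room-temperature EC80 agonist challenge that followed 60 min compound pre-treatment at 37° C (1% vehicle). IC50 comes from % inhibition normalized to EC80 and vehicle controls.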

T1 sequence (P08069 31-1367): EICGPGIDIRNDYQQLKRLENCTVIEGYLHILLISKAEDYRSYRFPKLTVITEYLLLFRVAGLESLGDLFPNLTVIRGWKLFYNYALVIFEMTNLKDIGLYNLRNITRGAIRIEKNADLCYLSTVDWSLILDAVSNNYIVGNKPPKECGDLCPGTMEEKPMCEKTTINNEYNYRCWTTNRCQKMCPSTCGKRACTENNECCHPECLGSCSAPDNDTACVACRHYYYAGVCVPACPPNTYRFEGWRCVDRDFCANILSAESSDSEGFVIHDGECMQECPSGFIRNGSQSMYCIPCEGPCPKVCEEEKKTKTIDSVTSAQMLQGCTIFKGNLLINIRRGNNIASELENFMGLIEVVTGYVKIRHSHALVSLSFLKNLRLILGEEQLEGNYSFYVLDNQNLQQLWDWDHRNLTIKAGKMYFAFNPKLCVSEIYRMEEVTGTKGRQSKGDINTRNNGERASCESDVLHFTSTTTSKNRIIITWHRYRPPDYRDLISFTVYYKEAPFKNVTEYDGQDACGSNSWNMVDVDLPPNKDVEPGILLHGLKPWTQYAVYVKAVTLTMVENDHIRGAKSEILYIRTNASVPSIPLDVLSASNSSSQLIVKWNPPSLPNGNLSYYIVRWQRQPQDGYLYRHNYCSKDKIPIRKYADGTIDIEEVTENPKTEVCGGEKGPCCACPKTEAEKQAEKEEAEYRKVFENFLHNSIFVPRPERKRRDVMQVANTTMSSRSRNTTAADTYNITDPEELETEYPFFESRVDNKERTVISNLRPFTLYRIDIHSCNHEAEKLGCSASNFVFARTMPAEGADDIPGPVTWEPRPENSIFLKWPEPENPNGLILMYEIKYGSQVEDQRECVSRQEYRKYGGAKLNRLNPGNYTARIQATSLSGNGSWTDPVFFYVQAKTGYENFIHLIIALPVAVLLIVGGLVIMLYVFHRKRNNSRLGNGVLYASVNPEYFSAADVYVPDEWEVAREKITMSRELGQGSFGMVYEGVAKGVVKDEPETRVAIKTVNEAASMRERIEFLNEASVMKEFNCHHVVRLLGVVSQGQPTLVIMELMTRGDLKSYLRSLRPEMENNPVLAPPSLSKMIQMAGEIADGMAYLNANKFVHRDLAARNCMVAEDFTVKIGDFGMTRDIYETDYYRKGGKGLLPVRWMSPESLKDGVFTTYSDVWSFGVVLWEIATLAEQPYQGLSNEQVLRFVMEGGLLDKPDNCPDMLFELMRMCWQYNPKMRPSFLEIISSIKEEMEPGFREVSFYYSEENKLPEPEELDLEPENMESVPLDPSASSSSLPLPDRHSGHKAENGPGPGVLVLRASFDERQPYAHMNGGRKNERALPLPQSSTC

Compound: CC1(C)C(=O)N(c2ccc(C3(C(F)(F)F)CC3)cc2)C(=O)N1Cc1ccnc(N[C@H]2CCOC2)c1 [Compound 119, (S)-5,5-dimethyl-1-((2-((tetrahydrofuran-3-yl)amino)pyridin-4-yl)methyl)-3-(4-(1-(trifluoromethyl)cyclopropyl)phenyl) imidazolidine-2,4-dione]
- IC50 (IGF-1R [1]): ≤ 500 nM
- IC50 (IGF-1R [2]): ≤ 500 nM

Compound: CC1(C)C(=O)N(c2ccc(C3(C(F)(F)F)CC3)cc2)C(=O)N1Cc1ccnc(NC2CC3(COC3)C2)c1 [Compound 120, 1-((2-((2-oxaspiro[3.3]heptan-6-yl)amino)pyridin-4-yl)methyl)-5,5-dimethyl-3-(4-(1-(trifluoromethyl)cyclopropyl)phenyl) imidazolidine-2,4-dione]
- IC50 (IGF-1R [1]): ≤ 500 nM
- IC50 (IGF-1R [2]): ≤ 500 nM

Compound: CC1(C)C(=O)N(c2ccc(C3(C(F)(F)F)CC3)cc2)C(=O)N1Cc1ccnc(N[C@H]2CCCOC2)c1 [Compound 121, (S)-5,5-dimethyl-1-((2-((tetrahydro-2H-pyran-3-yl)amino)pyridin-4-yl)methyl)-3-(4-(1-(trifluoromethyl)cyclopropyl)phenyl) imidazolidine-2,4-dione]
- IC50 (IGF-1R [1]): ≤ 500 nM
- IC50 (IGF-1R [2]): ≤ 500 nM

Compound: Cc1c(CN2C(=O)N(c3ccc(C4(C(F)(F)F)CC4)cc3)C(=O)C2(C)C)ccnc1NC(C)C [Compound 122, 1-((2-(isopropylamino)-3-methylpyridin-4-yl)methyl)-5,5-dimethyl-3-(4-(1-(trifluoromethyl)cyclopropyl)phenyl)imidazolidine-2,4-dione]
- IC50 (IGF-1R [1]): > 10000 nM
- IC50 (IGF-1R [2]): ≤ 500 nM

Compound: CC(C)Nc1cc(CN2C(=O)N(c3ccc(C4(C#N)CC(F)(F)C4)cc3)C(=O)C2(C)C)ccn1 [Compound 123, 3,3-difluoro-1-(4-(3-((2-(isopropylamino)pyridin-4-yl)methyl)-4,4-dimethyl-2,5-dioxoimidazolidin-1-yl)phenyl)cyclobutane-1-carbonitrile]
- IC50 (IGF-1R [1]): 500 to 2000 nM
- IC50 (IGF-1R [2]): 500 to 2000 nM

Compound: CC(C)Nc1cc(CN2C(=O)N(c3ccc(C4(C)CC4(F)F)cc3)C(=O)C2(C)C)ccn1 (centres unmarked) [Compound 124, 3-(4-(2,2-difluoro-1-methylcyclopropyl)phenyl)-1-((2-(isopropylamino)pyridin-4-yl)methyl)-5,5-dimethylimidazolidine-2,4-dione]
- IC50 (IGF-1R [1]): ≤ 500 nM
- IC50 (IGF-1R [2]): ≤ 500 nM

Compound: CC(C)Nc1cc(CN2C(=O)N(c3ccc(C(C)(C)C#N)cc3)C(=O)C2(C)C)ccn1 [Compound 125, 2-(4-(3-((2-(isopropylamino)pyridin-4-yl)methyl)-4,4-dimethyl-2,5-dioxoimidazolidin-1-yl)phenyl)-2-methylpropanenitrile]
- IC50 (IGF-1R [1]): ≤ 500 nM
- IC50 (IGF-1R [2]): ≤ 500 nM

Compound: CC(C)Nc1cc(CN2C(=O)N(c3ccc(C4(C#N)CCCCC4)cc3)C(=O)C2(C)C)ccn1 [Compound 126, 1-(4-(3-((2-(isopropylamino)pyridin-4-yl)methyl)-4,4-dimethyl-2,5-dioxoimidazolidin-1-yl)phenyl)cyclohexane-1-carbonitrile]
- IC50 (IGF-1R [1]): 500 to 2000 nM
- IC50 (IGF-1R [2]): 500 to 2000 nM

Compound: CC1CC(Nc2cc(CN3C(=O)N(c4ccc(C5(C(F)(F)F)CC5)cc4)C(=O)C3(C)C)ccn2)CCO1 (centres unmarked) [Compound 127, 5,5-dimethyl-1-((2-((2-methyltetrahydro-2H-pyran-4-yl)amino)pyridin-4-yl)methyl)-3-(4-(1-(trifluoromethyl)cyclopropyl)phenyl) imidazolidine-2,4-dione]
- IC50 (IGF-1R [1]): ≤ 500 nM
- IC50 (IGF-1R [2]): ≤ 500 nM

Compound: CC1COCCC1Nc1cc(CN2C(=O)N(c3ccc(C4(C(F)(F)F)CC4)cc3)C(=O)C2(C)C)ccn1 (centres unmarked) [Compound 128, 5,5-dimethyl-1-((2-((3-methyltetrahydro-2H-pyran-4-yl)amino)pyridin-4-yl)methyl)-3-(4-(1-(trifluoromethyl)cyclopropyl)phenyl) imidazolidine-2,4-dione]
- IC50 (IGF-1R [1]): ≤ 500 nM
- IC50 (IGF-1R [2]): ≤ 500 nM

Compound: CC1(C)C(=O)N(c2ccc(C3(C#N)CCC3)cc2)C(=O)N1Cc1ccnc(NC2CCOCC2)c1 [Compound 129, 1-(4-(4,4-dimethyl-2,5-dioxo-3-((2-((tetrahydro-2H-pyran-4-yl)amino)pyridin-4-yl)methyl)imidazolidin-1-yl)phenyl)cyclobutane-1-carbonitrile]
- IC50 (IGF-1R [1]): ≤ 500 nM
- IC50 (IGF-1R [2]): ≤ 500 nM

Compound: CC1(C)C(=O)N(c2ccc(C3(C(F)(F)F)CCC3)cc2)C(=O)N1Cc1ccnc(NC2CCOCC2)c1 [Compound 130, 5,5-dimethyl-1-((2-((tetrahydro-2H-pyran-4-yl)amino)pyridin-4-yl)methyl)-3-(4-(1-(trifluoromethyl)cyclobutyl)phenyl) imidazolidine-2,4-dione]
- IC50 (IGF-1R [1]): ≤ 500 nM
- IC50 (IGF-1R [2]): ≤ 500 nM

Compound: CC(C)Nc1cc(CN2C(=O)N(c3ccc(C4(C#N)CCCC4)cc3)C(=O)C2(C)C)ccn1 [Compound 131, 1-(4-(3-((2-(isopropylamino)pyridin-4-yl)methyl)-4,4-dimethyl-2,5-dioxoimidazolidin-1-yl)phenyl)cyclopentane-1-carbonitrile]
- IC50 (IGF-1R [1]): ≤ 500 nM
- IC50 (IGF-1R [2]): ≤ 500 nM

Compound: CC1(C)COCCC1Nc1cc(CN2C(=O)N(c3ccc(C4(C(F)(F)F)CC4)cc3)C(=O)C2(C)C)ccn1 (centres unmarked) [Compound 132, 1-((2-((3,3-dimethyltetrahydro-2H-pyran-4-yl)amino)pyridin-4-yl)methyl)-5,5-dimethyl-3-(4-(1-(trifluoromethyl)cyclopropyl)phenyl) imidazolidine-2,4-dione]
- IC50 (IGF-1R [1]): 2000 to 10000 nM
- IC50 (IGF-1R [2]): 500 to 2000 nM

Compound: CC1(C)C(=O)N(c2ccc(C3(C(F)(F)F)CC3)cc2)C(=O)N1Cc1ccnc(NC2CCS(=O)(=O)CC2)c1 [Compound 133, 1-((2-((1,1-dioxidotetrahydro-2H-thiopyran-4-yl)amino)pyridin-4-yl)methyl)-5,5-dimethyl-3-(4-(1-(trifluoromethyl)cyclopropyl)phenyl) imidazolidine-2,4-dione]
- IC50 (IGF-1R [1]): 500 to 2000 nM
- IC50 (IGF-1R [2]): 500 to 2000 nM

Compound: CC(c1ccnc(NC2CCOCC2)c1)N1C(=O)N(c2ccc(C3(C(F)(F)F)CC3)cc2)C(=O)C1(C)C (centres unmarked) [Compound 134, 5,5-dimethyl-1-(1-(2-((tetrahydro-2H-pyran-4-yl)amino)pyridin-4-yl)ethyl)-3-(4-(1-(trifluoromethyl)cyclopropyl)phenyl) imidazolidine-2,4-dione]
- IC50 (IGF-1R [1]): ≤ 500 nM
- IC50 (IGF-1R [2]): 500 to 2000 nM

Compound: CC(c1ccnc(N)c1)N1C(=O)N(c2ccc(C3(C(F)(F)F)CC3)cc2)C(=O)C1(C)C (centres unmarked) [Compound 135, 1-(1-(2-aminopyridin-4-yl)ethyl)-5,5-dimethyl-3-(4-(1-(trifluoromethyl)cyclopropyl)phenyl) imidazolidine-2,4-dione]
- IC50 (IGF-1R [1]): ≤ 500 nM
- IC50 (IGF-1R [2]): ≤ 500 nM

Compound: CC1(C)C(=O)N(c2ccc(C3(C(F)(F)F)CC3)cc2)C(=O)N1Cc1ccnc(NC2CCS(=O)(=O)C2)c1 (centres unmarked) [Compound 136, 1-((2-((1,1-dioxidotetrahydrothiophen-3-yl)amino)pyridin-4-yl)methyl)-5,5-dimethyl-3-(4-(1-(trifluoromethyl)cyclopropyl)phenyl) imidazolidine-2,4-dione]
- IC50 (IGF-1R [1]): 500 to 2000 nM
- IC50 (IGF-1R [2]): 500 to 2000 nM

Compound: CC1(C)C(=O)N(c2ccc(C3(C(F)(F)F)CC3)cc2)C(=O)N1Cc1ccnc(NCCS(C)(=O)=O)c1 [Compound 137, 5,5-dimethyl-1-((2-((2-(methylsulfonyl)ethyl)amino)pyridin-4-yl)methyl)-3-(4-(1-(trifluoromethyl)cyclopropyl)phenyl) imidazolidine-2,4-dione]
- IC50 (IGF-1R [1]): ≤ 500 nM
- IC50 (IGF-1R [2]): ≤ 500 nM
